SMILES strings stand for the structures.

The values that follow come from patent US9458132B2, “Therapeutic compounds and compositions and their use as PKM2 modulators” (AGIOS PHARMACEUTICALS, INC., priority 2012, dated 2016).

Common to all, as to assay type: biochemical
The target in one experiment is PKR R532W (Homo sapiens, UniProt P30613, R532W). Nature of the experiment: PKR mutant assay, PKR R532W AC50. The conditions noted are these: mutant PKR R532W enzyme. As for the experimental part:
(§1) • PKR or PKR mutant enzyme solution was diluted in assay buffer. • 2 μL of test compound was added into wells first, and then 180 μL reaction mix was added. • Reactions mixture with test compound was assembled except for ADP, and plates were stored for 60 minutes at room temperature. • 20 uL ADP was added to start reaction at room temperature and reaction progress was measured as changes in absorbance at 340 nm wavelength at room temperature.
(§2) Test Compound Preparation: • Test compound stock was made at 100x concentration in 100% DMSO (10 mM) • 1 to 3 dilutions were made for 11 points (i.e. 50 μl of first concentration added to 100 μl 100% DMSO to yield 3.33 mM, 50 μl of this added to 100 μl DMSO to yield 1.11 mM, and so forth) • 1 to 100 dilution into assay (2 μl in 200 μl) yielded starting concentration of 100 μM, decreasing 3 fold for 11 points • Assay Buffer: 100 mM KCl, 50 mM Tris 7.5, 5 mM MgCl2, 1 mM DTT, 0.03% BSA • Reaction Mixture: PKR mutant enzyme: 80-400 ng/well; ADP: 0.22-1.65 mM; PEP: 0.1-0.5 mM; NADH:180 uM; LDH: 0.5 units (Sigma#59023); DTT: 1 mM; BSA: 0.03%.
(§3) A compound described herein was diluted with DMSO and tested at 1 μM concentration. The enzyme was diluted in 1× Buffer: (100 mM KCl, 50 mM Tris 7.5, 5 mM MgCl2, 1 mM DTT, 0.03% BSA). 2 μL of compound solution was first added into wells, and then 180 μL of enzyme solution was added. Assays were assembled except for ADP, and plates were stored for 60 minutes at RT. 20 μL ADP was added to start the assay and assay output was evaluated using OD340 at SpectraMax. The assay was run at room temperature. • Final concentration: PKR R532W (100 ng/well), Tris pH 7.5 (50 mM), KCl (100 mM), MgCl2 (5 mM), ADP (0.36 mM), PEP (0.1 mM), NADH (180 μM), LDH (0.5 units, Sigma 59023), DTT (1 mM) and BSA (0.03%).

In the next experiment the target is PKR R510Q (Homo sapiens, UniProt P30613, R510Q). The experiment can be described thus: PKR mutant assay, PKR R510Q AC50. The conditions noted are these: mutant PKR R510Q enzyme. As for the experimental part: as §1
as §2, with “0.03%. […]” for “0.03%.”

The next experiment addresses PKR WT (Homo sapiens, UniProt P30613). Nature of the experiment: PKR WT enzymatic assay AC50. The conditions noted are these: wild type PKR. On the procedure:
as §1, §2
as §3, with “wt” for “R532W”, “(0.48” for “(0.36”, “(0.15” for “(0.1”

PKR R510Q, sequence (P30613 whole entry R510Q): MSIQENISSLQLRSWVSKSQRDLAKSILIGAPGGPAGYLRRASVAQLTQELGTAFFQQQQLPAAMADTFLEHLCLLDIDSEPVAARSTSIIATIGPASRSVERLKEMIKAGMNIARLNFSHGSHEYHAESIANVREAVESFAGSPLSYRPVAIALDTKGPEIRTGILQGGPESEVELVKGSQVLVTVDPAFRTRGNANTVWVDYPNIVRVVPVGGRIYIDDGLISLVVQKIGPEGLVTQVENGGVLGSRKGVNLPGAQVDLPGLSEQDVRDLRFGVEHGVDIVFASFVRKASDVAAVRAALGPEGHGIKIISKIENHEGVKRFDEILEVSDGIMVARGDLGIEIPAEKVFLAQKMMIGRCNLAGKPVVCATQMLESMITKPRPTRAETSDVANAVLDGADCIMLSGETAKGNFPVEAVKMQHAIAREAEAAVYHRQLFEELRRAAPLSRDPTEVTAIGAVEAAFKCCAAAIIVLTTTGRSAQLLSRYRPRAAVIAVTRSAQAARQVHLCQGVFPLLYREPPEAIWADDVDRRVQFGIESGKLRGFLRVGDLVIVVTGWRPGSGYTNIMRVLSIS
PKR R532W, sequence (P30613 whole entry R532W): as the sequence (P30613 whole entry R510Q) above, with Q510R, R532W counted along it
PKR WT, sequence (P30613 whole entry): as the sequence (P30613 whole entry R510Q) above, with Q510R counted along it

With `CC(O)CC1(O)CN(C(=O)c2ccc(NS(=O)(=O)c3cccc4cccnc34)cc2)C1` (stereo not shown) [Compound 41, N-(4-(3-hydroxy-3-(2-hydroxypropyl)azetidine-1-carbonyl)phenyl)quinoline-8-sulfonamide], the AC50 at PKR R532W was 1.01 to 10 µM; on PKR R510Q, more than 10 µM; at PKR WT, 1.01 to 10 µM.

Turning to `O=C(c1ccc(NS(=O)(=O)c2cccc3cccnc23)c(F)c1)N1CC(O)(Cc2ccccc2)C1` [Compound 46, N-(4-(3-benzyl-3-hydroxyazetidine-1-carbonyl)-2-fluorophenyl)quinoline-8-sulfonamide], the AC50 on PKR R532W lay within 0.101 to 1 µM; on PKR R510Q, 1.01 to 10 µM; at PKR WT it was 0.101 to 1 µM.

`CC(C)CC1(O)CN(C(=O)c2ccc(NS(=O)(=O)c3cccc4cccnc34)cc2)C1` [Compound 35, N-(4-(3-hydroxy-3-isobutylazetidine-1-carbonyl)phenyl)quinoline-8-sulfonamide]: the figures for the AC50 at PKR R532W, on PKR R510Q and at PKR WT were 0.101 to 1 µM, 1.01 to 10 µM and 0.101 to 1 µM, respectively.

Turning to `O=C(c1ccc(NS(=O)(=O)c2cccc3cnccc23)cc1)N1CC(O)(Cc2ccccc2)C1` [Compound 48, N-(4-(3-benzyl-3-hydroxyazetidine-1-carbonyl)phenyl)isoquinoline-5-sulfonamide], the AC50 on PKR R532W and on PKR WT was more than 10 µM throughout.

Turning to `O=C(c1ccc(NS(=O)(=O)c2cccc3cccnc23)cc1)N1CC(O)(CCO)C1` [Compound 38, N-(4-(3-hydroxy-3-(2-hydroxyethyl)azetidine-1-carbonyl)phenyl)quinoline-8-sulfonamide], the AC50 at PKR R532W is more than 10 µM; on PKR R510Q it was more than 10 µM; at PKR WT it was 1.01 to 10 µM.

As for `O=C(c1ccc(NS(=O)(=O)c2cccc3cccnc23)cc1)N1CC(O)(C2CC2)C1` [Compound 33, N-(4-(3-cyclopropyl-3-hydroxyazetidine-1-carbonyl)phenyl)quinoline-8-sulfonamide], the figures for the AC50 at PKR R532W, at PKR R510Q and on PKR WT were 1.01 to 10 µM, more than 10 µM and 1.01 to 10 µM, respectively.

`Cc1cccnc1C1(O)CN(C(=O)c2ccc(NS(=O)(=O)c3cccc4cccnc34)cc2)C1` [Compound 59]: the AC50 at PKR R510Q is more than 10 µM.

For the compound `CC(C)C1(O)CN(C(=O)c2ccc(NS(=O)(=O)c3cccc4cccnc34)cc2)C1` [Compound 32, N-(4-(3-hydroxy-3-isopropylazetidine-1-carbonyl)phenyl)quinoline-8-sulfonamide], the AC50 is 1.01 to 10 µM on PKR R532W, more than 10 µM at PKR R510Q and 1.01 to 10 µM at PKR WT.

Consider `O=C(c1ccc(NS(=O)(=O)c2cccc3cccnc23)cc1)N1CC(O)(Cc2cccc(F)n2)C1` [Compound 54, N-(4-(3-((6-fluoropyridin-2-yl)methyl)-3-hydroxyazetidine-1-carbonyl)phenyl)quinoline-8-sulfonamide], for which the AC50 lay within 0.101 to 1 µM at PKR R532W, 1.01 to 10 µM at PKR R510Q and 0.101 to 1 µM on PKR WT.

Consider `O=C(c1ccc(NS(=O)(=O)c2cccc3cccnc23)cc1)N1CC(O)(c2ccccc2C(F)(F)F)C1` [Compound 6, N-(4-(3-hydroxy-3-(2-(trifluoromethyl)phenyl)azetidine-1-carbonyl)phenyl)quinoline-8-sulfonamide], for which the half-maximal activity concentration (AC50) at PKR R532W, on PKR R510Q and at PKR WT was 0.101 to 1 µM in each case.

Regarding `O=C(c1ccc(NS(=O)(=O)c2cccc3nonc23)cc1)N1CC(O)(Cc2ccccc2)C1` [Compound 69], the AC50 on PKR R532W, at PKR R510Q and at PKR WT was more than 10 µM throughout.

`O=C(c1ccc(NS(=O)(=O)c2cccc3cccnc23)cc1)N1CC(O)(Cc2ccccn2)C1` [Compound 55, N-(4-(3-hydroxy-3-(pyridin-2-ylmethyl)azetidine-1-carbonyl)phenyl)quinoline-8-sulfonamide]: the half-maximal activity concentration (AC50) at PKR R532W fell in the range of 0.101 to 1 µM; at PKR R510Q, 1.01 to 10 µM; at PKR WT it was 0.101 to 1 µM.

For `O=C(c1ccc(NS(=O)(=O)c2cccc3cccnc23)cc1)N1CC(O)(c2ncccc2C(F)(F)F)C1` [Compound 24, N-(4-(3-hydroxy-3-(3-(trifluoromethyl)pyridin-2-yl)azetidine-1-carbonyl)phenyl)quinoline-8-sulfonamide], the concentration at half-maximal activity (AC50) is 1.01 to 10 µM at PKR R510Q and 0.101 to 1 µM at PKR WT.

Take `COc1cccnc1C1(O)CN(C(=O)c2ccc(NS(=O)(=O)c3cccc4cccnc34)cc2)C1` [Compound 21, N-(4-(3-hydroxy-3-(3-methoxypyridin-2-yl)azetidine-1-carbonyl)phenyl)quinoline-8-sulfonamide]: the concentration at half-maximal activity (AC50) at PKR R510Q and at PKR WT was 1.01 to 10 µM in each case.

Regarding `CN1C(=O)Cc2cc(S(=O)(=O)Nc3ccc(C(=O)N4CC(O)(Cc5ccccc5)C4)cc3)ccc21` [Compound 66], the AC50 on PKR R532W and on PKR WT was more than 10 µM each time.

Take `O=C(c1ccc(NS(=O)(=O)c2cccc3cccnc23)cc1)N1CC(O)(c2ccccc2F)C1` [Compound 3, N-(4-(3-(2-fluorophenyl)-3-hydroxyazetidine-1-carbonyl)phenyl)quinoline-8-sulfonamide]: the AC50 on PKR R532W lay within 0.101 to 1 µM; on PKR R510Q, 1.01 to 10 µM; at PKR WT, 0.101 to 1 µM.

`O=C(c1ccc(NS(=O)(=O)c2cccc(Cl)c2Cl)cc1)N1CC(O)(Cc2ccccc2)C1` [Compound 52, N-(4-(3-benzyl-3-hydroxyazetidine-1-carbonyl)phenyl)-2,3-dichlorobenzenesulfonamide]: the AC50 on PKR R532W was 1.01 to 10 µM; on PKR R510Q it was more than 10 µM; at PKR WT it was 1.01 to 10 µM.

Turning to `O=C(c1ccc(NS(=O)(=O)c2cccc3cccnc23)cc1)N1CC(O)(c2ccc(F)cc2)C1` [Compound 14, N-(4-(3-(4-fluorophenyl)-3-hydroxyazetidine-1-carbonyl)phenyl)quinoline-8-sulfonamide], the figures for the AC50 on PKR R532W, at PKR R510Q and at PKR WT were 0.101 to 1 µM, 1.01 to 10 µM and 0.101 to 1 µM, respectively.

Take `O=C(c1ccc(NS(=O)(=O)c2cccc3cccnc23)cc1)N1CC(O)(c2ncccc2Cl)C1` [Compound 23, N-(4-(3-(3-chloropyridin-2-yl)-3-hydroxyazetidine-1-carbonyl)phenyl)quinoline-8-sulfonamide]: the figures for the AC50 on PKR R510Q and at PKR WT were more than 10 µM and 1.01 to 10 µM, respectively.

Consider `O=C(c1ccc(NS(=O)(=O)c2ccc(OC(F)(F)F)cc2)cc1)N1CC(O)(Cc2ccccc2)C1` [Compound 65], for which the AC50 on PKR R532W and on PKR WT was more than 10 µM in each case.

For the compound `O=C(c1ccc(NS(=O)(=O)c2ccc(C(F)(F)F)cc2)cc1)N1CC(O)(Cc2ccccc2)C1` [Compound 50, N-(4-(3-benzyl-3-hydroxyazetidine-1-carbonyl)phenyl)-4-(trifluoromethyl)benzenesulfonamide], the AC50 at PKR R532W was more than 10 µM.

For `O=C(c1ccc(NS(=O)(=O)c2cccc3cccnc23)cc1)N1CC(O)(c2ncccc2OC(F)F)C1` [Compound 25, N-(4-(3-(3-(difluoromethoxy)pyridin-2-yl)-3-hydroxyazetidine-1-carbonyl)phenyl)quinoline-8-sulfonamide], the AC50 was 1.01 to 10 µM at PKR R510Q and 0.101 to 1 µM on PKR WT.
